Measurements reported in US8603493B2, “Carbosilane dendrimers, preparation method thereof and use of same” (Dendrico, S.L., priority 2005, dated 2013).

Tests used:
plasmid Nf-kappaB-luc = assay: Capacity to form complexes with large-sized DNA (plasmid); assay type: binding; settings: charge ratio (+/−)=6/1 manages to retain DNA migration
Procedure: In a similar form to the previous experiments, electrophoresis was carried out with different samples, placing them a ladder type marker which measures up to 5000 pb in the well previous to it.

U87-MG cells [1] = assay: Toxicity in U-87-MG cells: LDH in the supernatant
Excerpt: The concentrations and volumes of each one of these compounds were the same used in the test performed with MTT. The commercial kit Cytotoxicity Detection KitPLUS (LDH), from Roche Applied Science was used to determine lactate dehydrogenase, following the manufacturer's instructions.

U87-MG cells [2] = assay: Transfection of U87-MG cells mediated by dendrimers (flow cytometry); assay type: cell-based; settings: dendriplex with anti-rev oligonucleotide 250 nM, − charge/+ charge ratio 1:8, 24 hours
Procedure: 100000 cells/well were plated of the corresponding cell line in a 24-well plate with 500 μl of medium.
Dendriplexes were formed with dendrimers NN and NN16 and the fluorescent anti-rev antisense oligonucleotide in a total volume of 75 μl of medium without serum, wherein the anti-rev oligonucleotide was mixed at a concentration 250 nM and the corresponding dendrimer in different proportions, so that different − charge/+ charge ratios were obtained: 1:1, 1:2, 1:4 and 1:8. The mixture was incubated during half an hour at ambient temperature and then it was added to the corresponding well to incubate the cells with dendriplexes.
After 24 hours of incubation, the cells were removed from the well, they were washed twice with PBS, they were incubated for 1 minute with acid glycine to remove the possible moieties of dendriplexes which may have remained adhered on the cell membrane, and a final wash was performed with PBS. Finally, the cells were resuspended in 500 μl of PBS and the quantity of fluorescent oligonucleotide inside the cell was quantified by flow cytometry.

SMILES	complex formation with plasmid (plasmid Nf-kappaB-luc)	cytotoxicity (LDH), comparison (U87-MG cells [1])	percentage of cells transfected (U87-MG cells [2]) [%]
C[N+](C)(C)CCO[Si](C)(C)CCC[Si](C)(CCC[Si](CCC[Si](C)(CCC[Si](C)(C)OCC[N+](C)(C)C)CCC[Si](C)(C)OCC[N+](C)(C)C)(CCC[Si](C)(CCC[Si](C)(C)OCC[N+](C)(C)C)CCC[Si](C)(C)OCC[N+](C)(C)C)CCC[Si](C)(CCC[Si](C)(C)OCC[N+](C)(C)C)CCC[Si](C)(C)OCC[N+](C)(C)C)CCC[Si](C)(C)OCC[N+](C)(C)C.[I-].[I-].[I-].[I-].[I-].[I-].[I-].[I-] [IM8, 2G-[Si(OCH2CH2NMe3^+I^−)]8]	capable of forming complexes with the plasmid used		
CN(CCO[Si](C)(C)CCC[Si](C)(CCC[Si](CCC[Si](C)(CCC[Si](C)(C)OCCN(C)CC[N+](C)(C)C)CCC[Si](C)(C)OCCN(C)CC[N+](C)(C)C)(CCC[Si](C)(CCC[Si](C)(C)OCCN(C)CC[N+](C)(C)C)CCC[Si](C)(C)OCCN(C)CC[N+](C)(C)C)CCC[Si](C)(CCC[Si](C)(C)OCCN(C)CC[N+](C)(C)C)CCC[Si](C)(C)OCCN(C)CC[N+](C)(C)C)CCC[Si](C)(C)OCCN(C)CC[N+](C)(C)C)CC[N+](C)(C)C.[I-].[I-].[I-].[I-].[I-].[I-].[I-].[I-] [NN, 2G-[Si(O(CH2)2N(Me)(CH2)2NMe3^+I^−)]8]		greater cytotoxicity as their concentration increases	95
